Test results published in US20200089110A1, “SULFONIC ACID DERIVATIVE COMPOUNDS AS PHOTOACID GENERATORS IN RESIST APPLICATIONS” (Heraeus Precious Metals North America Daychem LLC, priority 2015, published 2020).

Experiments:
Solubility in PGMEA = format: physicochemical; settings: in propylene glycol monomethyl ether acetate (PGMEA)
[1] = Photolysis of PAGs in acetonitrile under 365 nm irradiation (photoreactivity); format: physicochemical; settings: for Solubility × Photoreactivity: product of solubility in PGMEA and relative photoreactivity at 365 nm
Description: A photoresist composition typically comprises PAG, polymers, additives and solvents. The performance of a photoresist composition is mainly dependent on the properties of the PAG and polymer components. To formulate a high-performance photoresist composition, more photosensitive PAGs are typically selected. The photosensitivity of a PAG is typically directly related to the strength of the generated acid and the photoreactivity of the PAG. For a series of PAGs producing the same latent acid, their photosensitivity is related only to their photoreactivity. Thus evaluating the photosensitivity of a PAG can be achieved by studying its photoreactivity. The higher photoreactivity, the higher photosensitivity. The photoreactivity can be investigated by photolysis of a PAG in its dilute solution under low exposure intensity (to avoid side reactions which don't generate the desired acid). The change in the concentration of a PAG upon irradiation can be determined by measuring the absorbance of the PAG at the maximum absorption wavelength.
(§1) Photolysis of PAGs was carried out in acetonitrile in air at room temperature. The sodium salt of tetrabromophenol blue (TBPBNa), an acid indicator dye, which has a maximum absorption at 618 nm, was purchased from Aldrich (indicator grade) and used as received. Irradiation of the solution of the PAGs (3×10^−5 M) was performed using a Cole-Parmer UV 15 W bench lamp (EW-97605-50) at 365 nm. Light intensity was measured using an UV Power Puck II radiometer from EIT Inc. UV-Vis spectra were run on a Thermo Scientific Evolution 201 UV-visible spectrophotometer.
Photolysis of NIT, comparative compound A, D-1, and D-2 was examined in acetonitrile. The absorption band at 397 nm gradually decreases upon irradiation, indicating the progress of photoreaction with the increase of exposure dose of energy. Assuming the photoreaction is first-order, plot of natural log of changes in absorbance with exposure dose of energy gives the photoreaction constant of D-2 (i.e. the slope of the linear trendline) (FIG. 2). The photoreaction constants of other compounds were similarly determined under the same irradiation condition.
Comparing the constants of A, D-1, and D-2 with that of NIT normalized to one gives the relative photoreactivity (Table 7). The photoreactivity for PAG (e.g. D-2) according to the present disclosure is ˜8 times greater than that of NIT and ˜3 times greater than that of Comparative Compound A. The formation of acid upon irradiation was confirmed by observing the spectral changes of the acid indicator, TBPBNa at 618 nm.

[2] = UV-Vis spectra of PAG compounds; format: physicochemical; settings: for absorbance at i-line of a mercury lamp: compared with NIT (FIG. 4); for strong absorption band: 0.001% w/v (FIG. 4)
Protocol: FIG. 4 is a UV-Vis spectra of compounds NIT, D-1, and D-2 in PGMEA and D-4 in acetonitrile (0.001% w/v).
as §1

Structure (SMILES) | Solubility (w/w %) in PGMEA (Solubility in PGMEA) [% w/w %] | Solubility × Photoreactivity [1] [%] | absorbance at i-line of a mercury lamp [2] | strong absorption band ([2]; in PGMEA) [nm] | melting point [°C] | absorption band ([1]; in acetonitrile, band decreases upon irradiation (FIG. 1)) [nm] | g-line absorbance ([2]; FIG. 4) | strong absorption band ([2]; in acetonitrile) [nm]
CCC(C)Oc1ccc(/C=C/c2ccc3c4c(cccc24)C(=O)N(OS(=O)(=O)C(F)(F)F)C3=O)cc1 (stereo not drawn) | 4.3 | 37.4 | – | – | – | – | – | –
O=C1c2cccc3c(C#Cc4ccccc4)ccc(c23)C(=O)N1OS(=O)(=O)C(F)(F)F [Comparative Compound A, reference compound] | 1.0 | 2.5 | – | – | – | – | – | –
CCCCOC(=O)/C=C/c1ccc2c3c(cccc13)C(=O)N(OS(=O)(=O)C(F)(F)F)C2=O [Compound D-1] | 6.9 | 12.4 | much larger than that of NIT | 363 | 151 to 152 | – | – | –

Second part, the molecule after the results:

Solubility (w/w %) in PGMEA (Solubility in PGMEA) [% w/w %] | Solubility × Photoreactivity [1] [%] | absorbance at i-line of a mercury lamp [2] | strong absorption band ([2]; in PGMEA) [nm] | melting point [°C] | absorption band ([1]; in acetonitrile, band decreases upon irradiation (FIG. 1)) [nm] | g-line absorbance ([2]; FIG. 4) | strong absorption band ([2]; in acetonitrile) [nm] | Structure (SMILES)
1.6 | 13.1 | much larger than that of NIT | 397 | 182 to 184 | 397 | – | – | O=C1c2cccc3c(/C=C/c4ccccc4)ccc(c23)C(=O)N1OS(=O)(=O)C(F)(F)F [Compound D-2]
– | – | – | – | 227 to 229 | – | – | – | CC(C)(C)c1ccc(/C=C/c2ccc3c4c(cccc24)C(=O)N(OS(=O)(=O)C(F)(F)F)C3=O)cc1 [Compound D-3]
– | – | much larger than that of NIT | – | – | – | large | 415 | CC(C)(C)Oc1ccc(/C=C/c2ccc3c4c(cccc24)C(=O)N(OS(=O)(=O)C(F)(F)F)C3=O)cc1 [Compound D-4]
1.7 | 1.7 | – | – | – | – | – | – | O=C1c2cccc3cccc(c23)C(=O)N1OS(=O)(=O)C(F)(F)F [NIT, N-Hydroxynaphthalimide triflate, reference compound]
